Assay results reported in EP4559923A1, “ANTIHISTAMINE COMPOUND, AND PREPARATION METHOD THEREFOR AND USE THEREOF” (HC Synthetic Pharmaceutical Co., Ltd., priority 2022, dated 2024).

Tests used:
histamine-induced asthma = assay: Antiasthmatic effect on histamine-induced asthma in guinea pigs (latency period); format: in vivo; settings: X±s, n = 5; for Post-administration latency period: 1 mg/kg oral gavage, sixty minutes after administration, histamine hydrochloride spray, no asthma within 8 minutes counted as 8 minutes; for Pre-administration latency period: baseline before dosing, histamine hydrochloride spray 0.8 mg/mL for 40 seconds
Description: The guinea pigs were placed in a polymethyl methacrylate bell jar and a histamine hydrochloride solution was sprayed ultrasonically (0.8 mg/mL) for 40 seconds. The time point at which the guinea pigs developed asthma was recorded. The time of convulsion and fall was taken as the latency period. Guinea pigs with a latency period exceeding 180 seconds were not selected. […] The guinea pigs were administered by oral gavage at a dose of 2 mL/kg·bw. Sixty minutes after the administration, the guinea pigs were placed in bell jars, and histamine hydrochloride solution was sprayed under the same conditions as in the previous selection. The latency period for the onset of asthma was recorded. […] The results were processed statistically.

[1] = system: isolated ileal smooth muscle; assay: Muscle tone of isolated ileal smooth muscle of guinea pigs, compound alone; settings: Table 3, no histamine, X±s, n = 8; for Smooth muscle tone (g) After administration: 5 minutes after adding the drug; for Smooth muscle tone (g) Before administration: before adding the drug; for Antispasmodic percentage (%): relative to tone before adding compound, 5 min
Description: (§1) The guinea pig was knocked unconscious with a wooden stick, and the abdomen was immediately dissected to separate the ileum about 15 cm in length. The contents of the intestinal segment were flushed with Tyrode's solution and placed in Tyrode's solution at a constant temperature of 37°C for later use, and oxygen was supplied simultaneously. The experimental intestinal tract (1 cm in length) was cut and placed into 20 ml of Tyrode's solution at a constant temperature of 37°C with a continuous oxygen supply. One end of the intestine was fixed on the ventilation hook and the other end was connected to the muscle tone transducer and led to the computer interface. The muscle tone value of the ileal smooth muscle was recorded with a BL system. The experiment was carried out after the intestinal segment contraction became stable.
After the ileum contraction curve stabilized, the tone values before adding the drug were recorded, then the drug or DMSO was added, and the average tone value of the ileum contraction curve at that point was recorded 5 minutes later. The operation was repeated 8 times. The antispasmodic percentage was calculated according to the following formula. Antispasmodic percentage =; (Tone value before adding subject compound−Tone value after adding subject compound)/(Tone value before adding subject compound) × 100% [formula]

[2] = Muscle tone of isolated ileal smooth muscle of guinea pigs contracted with histamine; settings: Table 4; 3 minutes after adding 0.05 mL compound at maximum histamine contraction; x±s, n = 8
Description: as §1
(§2) After the ileal peristalsis curve stabilized, the tone values before adding the compound were recorded, and then 0.05 mL of histamine was added. […] The operation was repeated 8 times. The antispasmodic percentage was calculated using the following equation. Antispasmodic percentage; = (Tone value after adding histamine−Tone value after adding subject compound)/(Tone value after adding histamine) × 100% [formula]

histamine = assay: as above; settings: Table 4, x±s, n = 8; for Smooth muscle tone (g) After addition of histamine: after 0.05 mL of histamine, before compound; for Smooth muscle tone (g) Before administration: before histamine and compound; for Antispasmodic percentage (%): relative to tone after adding histamine, 3 min
Description: as §1, §2

Row | Structure (SMILES) | Post-administration latency period (histamine-induced asthma) | Pre-administration latency period (histamine-induced asthma) | Smooth muscle tone (g) After administration [1] | Smooth muscle tone (g) Before administration [1] | Antispasmodic percentage (%) [1] | Smooth muscle tone (g) After administration [2] | Smooth muscle tone (g) After addition of histamine (histamine) | Smooth muscle tone (g) Before administration (histamine) | Antispasmodic percentage (%) (histamine)
1 | O=P(O)(O)OCCN1CCC(=C2c3ccc(F)cc3CCc3cccnc32)CC1 [Compound III-5] | 371.19 ± 44.59 s | 100.10 ± 43.29 s | 1.18 ± 0.22 g | 1.73 ± 0.21 g | 31.79±16.94% | 1.17 ± 0.23 g | 3.40 ± 0.83 g | 1.79 ± 0.20 g | 65.58±20.01%
2 | O=P(O)(O)OCOCCCCCN1CCC(=C2c3ccc(Cl)cc3CCc3cccnc32)CC1 [Compound IV-11] | 364.85 ± 51.11 s |  | 1.18 ± 0.31 g |  | 32.57±19.31% | 1.18 ± 0.28 g |  |  | 65.89±19.39%
3 | O=P(O)(O)OCN1CCC(=C2c3ccc(F)cc3CCc3cccnc32)CC1 [Compound III-2] | 367.77 ± 50.21 s | 98.81 ± 50.32 s | 1.15 ± 0.20 g | 1.72 ± 0.23 g | 33.14±15.19% | 1.10 ± 0.19 g | 3.40 ± 0.99 g | 1.75 ± 0.16 g | 67.65±17.99%
4 | O=P(O)(O)OCCCN1CCC(=C2c3ccc(Br)cc3CCc3cccnc32)CC1 [Compound III-9] | 362.84 ± 53.77 s |  | 1.18 ± 0.25 g |  | 30.59±20.02% | 1.14 ± 0.26 g |  |  | 67.33±19.34%
5 | O=P(O)(O)OCCCN1CCC(=C2c3ccc(F)cc3CCc3cccnc32)CC1 [Compound III-8] |  |  | 1.14 ± 0.23 g |  | 33.72±19.01% | 1.16 ± 0.25 g |  |  | 66.47±18.83%
6 | O=P(O)(O)OCCCCCN1CCC(=C2c3ccc(Br)cc3CCc3cccnc32)CC1 [Compound III-15] | 359.61 ± 50.22 s | 99.11 ± 51.09 s | 1.13 ± 0.20 g | 1.74 ± 0.22 g | 35.05±18.37% | 1.17 ± 0.23 g | 3.40 ± 0.89 g | 1.80 ± 0.20 g | 65.59±18.88%
7 | O=P(O)(O)OCN1CCC(=C2c3ccc(Br)cc3CCc3cccnc32)CC1 [Compound III-3] |  |  |  |  | 29.82±18.20% |  | 3.50 ± 1.19 g |  | 66.28±16.30%
8 | O=P(O)(O)OCOCCCCCN1CCC(=C2c3ccc(Cl)cc3CCc3cccnc32)CC1 [Compound III-19] | 355.71 ± 50.33 s | 98.46 ± 52.04 s | 1.15 ± 0.24 g | 1.72 ± 0.25 g | 33.13±19.91% | 1.18 ± 0.28 g | 3.43 ± 0.94 g | 1.82 ± 0.21 g | 65.59±18.97%
9 | O=P(O)(O)OCOCCCN1CCC(=C2c3ccc(Cl)cc3CCc3cccnc32)CC1 [Compound III-17] | 360.28 ± 51.00 s | 96.93 ± 53.19 s | 1.14 ± 0.28 g | 1.71 ± 0.23 g | 33.33±19.10% | 1.19 ± 0.29 g | 3.41 ± 0.84 g | 1.83 ± 0.25 g | 65.10±19.10%
10 | O=P(O)(O)OCN1CCC(=C2c3ccc(Cl)cc3CCc3cccnc32)CC1 [Compound III-1] | 388.39 ± 53.23 s | 99.34 ± 49.57 s | 1.10 ± 0.22 g | 1.74 ± 0.19 g | 36.78±18.11% | 1.12 ± 0.25 g | 3.44 ± 1.10 g | 1.81 ± 0.19 g | 67.44±15.23%
11 | O=P(O)(O)OCCN1CCC(=C2c3ccc(Cl)cc3CCc3cccnc32)CC1 [Compound III-4] | 366.40 ± 50.23 s | 97.99 ± 50.18 s | 1.17 ± 0.21 g | 1.70 ± 0.20 g | 31.17±20.11% | 1.21 ± 0.20 g | 3.48 ± 0.98 g | 1.75 ± 0.18 g | 65.23±19.91%
12 | O=P(O)(O)OCCCCN1CCC(=C2c3ccc(Br)cc3CCc3cccnc32)CC1 [Compound III-12] | 359.80 ± 51.47 s | 99.91 ± 49.45 s | 1.25 ± 0.21 g | 1.74 ± 0.23 g | 28.16±21.10% | 1.21 ± 0.23 g | 3.45 ± 0.94 g | 1.82 ± 0.21 g | 64.92±17.49%
13 | O=P(O)(O)OCN1CCC(=C2c3ccc(Cl)cc3CCc3cccnc32)CC1 [Compound IV-1] | 362.39 ± 48.40 s |  | 1.18 ± 0.21 g |  | 30.99±19.20% | 1.20 ± 0.23 g |  |  | 65.12±19.01%
14 | O=P(O)(O)OCCCCN1CCC(=C2c3ccc(F)cc3CCc3cccnc32)CC1 [Compound III-11] | 373.33 ± 50.81 s |  | 1.17 ± 0.22 g |  |  | 1.16 ± 0.20 g |  |  | 66.37±17.33%
15 | O=P(O)(O)OCOCCCCN1CCC(=C2c3ccc(Cl)cc3CCc3cccnc32)CC1 [Compound IV-10] | 365.28 ± 52.09 s |  | 1.19 ± 0.24 g |  | 30.41±20.04% | 1.20 ± 0.27 g |  |  | 65.31±19.57%
16 | O=P(O)(O)OCCN1CCC(=C2c3ccc(Br)cc3CCc3cccnc32)CC1 [Compound III-6] | 373.29 ± 50.22 s | 95.26 ± 48.88 s | 1.16 ± 0.27 g | 1.72 ± 0.20 g | 32.56±17.27% | 1.20 ± 0.20 g | 3.47 ± 0.90 g | 1.83 ± 0.18 g | 65.42±17.83%
17 | O=P(O)(O)OCOCCN1CCC(=C2c3ccc(Cl)cc3CCc3cccnc32)CC1 [Compound III-16] | 363.23 ± 50.55 s | 95.92 ± 50.22 s | 1.15 ± 0.24 g | 1.72 ± 0.20 g | 33.14±18.54% | 1.18 ± 0.25 g | 3.42 ± 0.92 g | 1.83 ± 0.21 g | 65.49±19.23%
